Experimental data: ChEMBL document CHEMBL1909294, “Translating clinical findings into knowledge in drug safety evaluation--drug induced liver injury prediction system (DILIps)” (PLoS Comput Biol, 2011)

How the values were obtained:
Hepatotoxicity [1] = system: Hepatotoxicity;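 for HepSE cholelithiasis: hepatic side effect score for cholelithiasis, drawn from the DILIps training data for predicting drug-induced liver injury; call rule not given here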;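 for HepSE elevated liver function tests: hepatic side effect score for raised liver function tests, as recorded in the DILIps training set used for predicting drug-induced liver injury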; for HepSE hepatic failure: call rule not given here;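 for HepSE hepatic necrosis: score of hepatic side effects for hepatic necrosis, drawn from the training data of DILIps, a prediction system for drug-induced liver injury; call rule not given here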;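 for HepSE hepatomegaly: hepatic side effect score for hepatomegaly, taken from the training set of the DILIps drug-induced liver injury prediction system; call rule not given here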;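 for HepSE jaundice: Jaundice-related hepatic side-effect score drawn from the training data of the DILIps (drug-induced liver injury prediction system); call rule not given here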; for HepSE liver disease: call rule not given here
Hepatotoxicity [2] = system: Hepatotoxicity; remark: listed apart in the source;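 for HepSE cholelithiasis: hepatic side effect score for cholelithiasis, drawn from the DILIps training data for predicting drug-induced liver injury; call rule not given here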;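 for HepSE elevated liver function tests: hepatic side effect score for raised liver function tests, as recorded in the DILIps training set used for predicting drug-induced liver injury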; for HepSE hepatic failure: call rule not given here;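 for HepSE hepatic necrosis: score of hepatic side effects for hepatic necrosis, drawn from the training data of DILIps, a prediction system for drug-induced liver injury; call rule not given here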;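 for HepSE hepatomegaly: hepatic side effect score for hepatomegaly, taken from the training set of the DILIps drug-induced liver injury prediction system; call rule not given here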;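 for HepSE jaundice: Jaundice-related hepatic side-effect score drawn from the training data of the DILIps (drug-induced liver injury prediction system); call rule not given here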
Hepatotoxicity [3] = system: Hepatotoxicity; remark: listed apart in the source;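 for HepSE cholelithiasis: hepatic side effect score for cholelithiasis, drawn from the DILIps training data for predicting drug-induced liver injury; call rule not given here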;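 for HepSE elevated liver function tests: hepatic side effect score for raised liver function tests, as recorded in the DILIps training set used for predicting drug-induced liver injury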; for HepSE hepatic failure: call rule not given here;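 for HepSE hepatic necrosis: score of hepatic side effects for hepatic necrosis, drawn from the training data of DILIps, a prediction system for drug-induced liver injury; call rule not given here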;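 for HepSE hepatomegaly: hepatic side effect score for hepatomegaly, taken from the training set of the DILIps drug-induced liver injury prediction system; call rule not given here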;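 for HepSE jaundice: Jaundice-related hepatic side-effect score drawn from the training data of the DILIps (drug-induced liver injury prediction system); call rule not given here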
Hepatotoxicity [4] = system: Hepatotoxicity; remark: listed apart in the source;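 for HepSE cholelithiasis: hepatic side effect score for cholelithiasis, drawn from the DILIps training data for predicting drug-induced liver injury; call rule not given here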;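 for HepSE elevated liver function tests: hepatic side effect score for raised liver function tests, as recorded in the DILIps training set used for predicting drug-induced liver injury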; for HepSE hepatic failure: call rule not given here;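 for HepSE hepatic necrosis: score of hepatic side effects for hepatic necrosis, drawn from the training data of DILIps, a prediction system for drug-induced liver injury; call rule not given here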;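 for HepSE hepatomegaly: hepatic side effect score for hepatomegaly, taken from the training set of the DILIps drug-induced liver injury prediction system; call rule not given here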;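 for HepSE jaundice: Jaundice-related hepatic side-effect score drawn from the training data of the DILIps (drug-induced liver injury prediction system); call rule not given here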
Hepatotoxicity [5] = system: Hepatotoxicity; remark: listed apart in the source; for HepSE hepatic failure: call rule not given here
Hepatotoxicity [6] = system: Hepatotoxicity; remark: listed apart in the source; for HepSE hepatic failure: call rule not given here
Hepatotoxicity [7] = system: Hepatotoxicity; remark: listed apart in the source
Hepatotoxicity [8] = system: Hepatotoxicity; remark: listed apart in the source
Hepatotoxicity [9] = system: Hepatotoxicity; remark: listed apart in the source
Hepatotoxicity [10] = system: Hepatotoxicity; remark: listed apart in the source
Hepatotoxicity [11] = system: Hepatotoxicity; remark: listed apart in the source
Hepatotoxicity [12] = system: Hepatotoxicity; remark: listed apart in the source
Hepatotoxicity [13] = system: Hepatotoxicity; remark: listed apart in the source
Hepatotoxicity [14] = system: Hepatotoxicity; remark: listed apart in the source

Compound	HepSE_hepatic necrosis (Hepatotoxicity [1])	HepSE_hepatomegaly (Hepatotoxicity [2])	HepSE_elevated liver function tests (Hepatotoxicity [3])	HepSE_cholelithiasis (Hepatotoxicity [4])	HepSE_liver fatty (Hepatotoxicity [5])	HepSE_jaundice (Hepatotoxicity [6])	HepSE_hepatic failure (Hepatotoxicity [7])	HepSE_liver disease (Hepatotoxicity [8])	HepSE_bilirubinemia (Hepatotoxicity [9])	HepSE_hepatitis (Hepatotoxicity [10])	HepSE_Combined Scores (Hepatotoxicity [11])	HepSE_cholecystitis (Hepatotoxicity [12])	HepSE_liver function tests abnormal (Hepatotoxicity [13])	HepSE_cirrhosis (Hepatotoxicity [14])	also measured
CC(C)/N=c1\cc2n(-c3ccc(Cl)cc3)c3ccccc3nc-2cc1Nc1ccc(Cl)cc1 [CLOFAZIMINE]	0	1	0	0	0	1	0	0	0	1	3	0	0	0	
CN(C)CCCN1c2ccccc2CCc2ccc(Cl)cc21 [CLOMIPRAMINE]	0	0	0	0	0	0	0	0	0	1	1	0	0	0	
O=C1CN=C(c2ccccc2Cl)c2cc([N+](=O)[O-])ccc2N1 [CLONAZEPAM]	0	1	0	0	0	0	0	0	0	0	1	0	0	0	
Clc1cccc(Cl)c1N=C1NCCN1 [CLONIDINE]															HepSE_hepatic necrosis (Hepatotoxicity [1]; Liver): 0; HepSE_hepatomegaly (Hepatotoxicity [2]; Liver): 0; HepSE_elevated liver function tests (Hepatotoxicity [3]; Liver): 0; HepSE_cholelithiasis (Hepatotoxicity [4]; Liver): 0; HepSE_liver fatty (Hepatotoxicity [5]; Liver): 0; HepSE_jaundice (Hepatotoxicity [6]; Liver): 0; HepSE_hepatic failure (Hepatotoxicity [7]; Liver): 0; HepSE_liver disease (Hepatotoxicity [8]; Liver): 0; HepSE_bilirubinemia (Hepatotoxicity [9]; Liver): 0; HepSE_hepatitis (Hepatotoxicity [10]; Liver): 1; HepSE_Combined Scores (Hepatotoxicity [11]; Liver): 1; HepSE_cholecystitis (Hepatotoxicity [12]; Liver): 0; HepSE_liver function tests abnormal (Hepatotoxicity [13]; Liver): 0; HepSE_cirrhosis (Hepatotoxicity [14]; Liver): 0
COC(=O)[C@H](c1ccccc1Cl)N1CCc2sccc2C1 [CLOPIDOGREL]															HepSE_hepatic necrosis (Hepatotoxicity [1]; Liver): 0; HepSE_hepatomegaly (Hepatotoxicity [2]; Liver): 0; HepSE_elevated liver function tests (Hepatotoxicity [3]; Liver): 0; HepSE_cholelithiasis (Hepatotoxicity [4]; Liver): 0; HepSE_liver fatty (Hepatotoxicity [5]; Liver): 1; HepSE_jaundice (Hepatotoxicity [6]; Liver): 0; HepSE_hepatic failure (Hepatotoxicity [7]; Liver): 1; HepSE_liver disease (Hepatotoxicity [8]; Liver): 0; HepSE_bilirubinemia (Hepatotoxicity [9]; Liver): 1; HepSE_hepatitis (Hepatotoxicity [10]; Liver): 1; HepSE_Combined Scores (Hepatotoxicity [11]; Liver): 4; HepSE_cholecystitis (Hepatotoxicity [12]; Liver): 0; HepSE_liver function tests abnormal (Hepatotoxicity [13]; Liver): 0; HepSE_cirrhosis (Hepatotoxicity [14]; Liver): 0
Clc1ccccc1C(c1ccccc1)(c1ccccc1)n1ccnc1 [CLOTRIMAZOLE]	0	0	0	0	0	0	0	0	0	0	1	0	1	0	
CN1CCN(C2=Nc3cc(Cl)ccc3Nc3ccccc32)CC1 [CLOZAPINE]	0	0	0	0	0	1	0	0	0	1	2	0	0	0	
C[C@]12CCC(=O)C=C1CC[C@@H]1[C@@H]2C(=O)C[C@@]2(C)[C@H]1CC[C@]2(O)C(=O)CO [CORTISONE]	0	0	0	0	0	0	0	0	0	0	0	0	0	0	
O=C(O)c1cc(=O)c2c(OCC(O)COc3cccc4oc(C(=O)O)cc(=O)c34)cccc2o1 [CROMOLYN]	0	0	0	0	0	0	0	1	0	0	1	0	0	0	
